The text below walks through data of patent publication EP0454429B1, “Use of 15-dehydroxy-16-oxoprostaglandin derivatives in the treatment of allergic diseases” (R-TECH UENO, LTD., priority 1990, dated 1991).

In one assay the test system is PCA reaction. As to the kind of experiment: Passive cutaneous anaphylaxis (PCA) reaction in sensitized rats (Test Example 7). Type of assay: in vivo, Male Crj Wistar rats. To be noted: Dose 10 µg/kg intravenously, n=16. The protocol: Male Crj Wistar rats (7 weeks old) were passively sensitized by injecting 50µl of diluted rat anti-EA (egg albumin) antiserum at the dorsal skin.
After 48 hours, 1 ml of a mixture consisting of equal amount of 1% EA (egg albumin) as the antigen in physiological saline and 1% Evans Blue in physiological saline was injected in the caudal vein to elicit the PCA reaction. After 30 minutes, the animals were killed by deep anesthetization and dorsal skin was ablated. The major and minor axes of reacted part, i.e. pigment-leaking site were measured and the average value of them was taken as the diameter, from which the area was calculated.
Then said site was punched and amount of the pigment was measured by the following method.
The punched site was dipped in 1ml of 1N aqueous potassium hydroxide and allowed to stand overnight at 37°C. Then 9ml of a mixed solution of 0.6N H3PO4: acetone (5:13) was added and the mixture was centrifuged. The supernatant was assayed for absorption at 620 nm using an absorption spectrophotometer. The amount of the pigment was determined by calibration curve which was obtained using the known amounts of the pigment.
The test compound was dissolved in the physiological saline and intravenously administered. The control animals intravenously received the physiological saline (5ml/kg) alone.

Assay [1] concerns platelet activating factor (PAF). As to the kind of experiment: Inhibition of PAF-induced increase in airway resistance, test compound i.v. (Test Example 4). In kind it is in vivo, guinea pig. As to conditions: dose 10µg/kg i.v. one minute before PAF (50 ng/kg i.v.), n=2. How it is done:
A guinea pig was intraperitoneally anesthetized with 1.2 g/kg urethane (Katayama Kagaku, Japan). The test animal was cannulated through the common carotid […] and the trachea, and then pancuronium bromide was intravenously administered at 0.3 mg/kg to stop the spontaneous respiration of the test animal. The animal was artificially respired using a respirater for a small animal (SN-480-7, Shinano Seisakusho, Japan) and bronchospasm transducer (7020, Ugo Basile). The overflowing air at 7-10 ml(air)/time, 60 times/minute and loading pressure of 10 cm H2O was recorded on a recorder (056-1001, Hitachi Seisakusho, Japan) through the bronchospasm transducer. When the base line was stabilized, platelet activating factor (PAF) (50 ng/kg) was intravenously administered. The increase in the airway resistance was determined taking the value at the complete occlusion of trachea as the maximum contraction (100%). The test compounds were intravenously administered one minute before the administration of PAF. The difference of airway resistance before and after the administration of 50 ng/kg PAF was taken as 100% and activity of test compound was shown in terms of percent inhibition of the increase due to PAF.

Assay [2] concerns contraction by leukotriene D4. As to the kind of experiment: Inhibition of leukotriene D4-induced contraction of isolated guinea pig trachea (Test Example 3). Type of assay: cell-based. To be noted: guinea pig trachea contracted with 1x10^-8M leukotriene D4; for IC20: concentration for 20% inhibition; for IC50: concentration for 50% inhibition. How it is done: (§1) A guinea pig was sacrificed by knocking at the occipital region and then bleeding from the femoral artery. The trachea was removed, incised in the longitudinal direction at the opposite side of the smooth muscle and sectioned into sections of about 1 to 1.5 cm along the cartilage. Seven or eight sections were linked by a silk thread in chains. The sample was stretched by 1.0 g of tension in 15 ml of Tyrode's solution at 37°C under flow of the mixed gas of 95% O2 and 5% CO2. After resting for 60 to 90 minutes for stabilization, the sample was contracted with 1x10^-8M leukotriene D4 and when the construction reached the constant value, the test compounds were accumulately added every 6 minutes, and the change in tension was recorded on a recorder (T-626DS, Nippon Densi Kagaku, Japan) through an isometric transducer (1T-1, LABOX, Fukukensha, Japan).
Rate of inhibition by the test compounds of the contraction by leukotriene D4 was expressed in percent, and IC20 and IC50 values were calculated as the concentration of the test compounds for 20% and 50% […], respectively.

A further assay deals with conjunctive. Nature of the assay: Histamine-induced conjunctival inflammation and dye leakage, ophthalmic administration (Test Example 6). As to conditions: for Weight of Conjunctive (Mean±S.D.): 3 minutes before Evans Blue and subconjunctival histamine, 30 minutes, control 41.5±2.0; for Dye (µg/part): dye extracted from conjunctive, absorption at 625 nm, control 8.26±0.52. Type of assay: in vivo, Female Wistar rats. Details: Weight of Conjunctive (Mean±S.D.): dose or concentration left out as unconfirmed. The protocol:
Female Wistar rats (weight: 90g) were used as the test animals. The animals received the test compounds and, 3 minutes after, 0.5ml of 0.5% Ebans Blue/physiological saline was administered through the caudal vein. Then, immediately after, 0.05ml of 0.1% histamine hydrochloride/physiological saline was injected subconjunctivally at an upper eyelid. After 30 minutes, the animals were sacrificed by vertebral cervial dislocation and the scalp was peeled away towards the eyelid. Part of skin and conjunctive showing inflammation was cut off and weighed. Then, said conjunctive was minced and extracted overnight with 4ml […] at 40°C with shaking. The dye in the conjunctive was assayed by measuring absorption of the extract at 625 nm. […] Control animals received the same amount of the physiological saline.

In assay [3] the test system is increase in the airway resistance by histamine. Nature of the assay: Inhibition of histamine-induced increase in airway resistance, test compound i.v. (Test Example 2). Type of assay: in vivo. As to conditions: one minute before histamine (3 µg/kg), anesthetized guinea pig. The protocol:
A guinea pig was intraperitoneally anesthetized with 1.0-1.2 g/kg urethane (Katayama Kagaku, Japan). The test animal was cannulated through the common carotid […] and the trachea, and then pancuronium bromide was intravenously administered at 0.3 mg/kg to stop the spontaneous respiration of the test animal. The animal was artificially respired using a respirater for a small animal (SN-480-7, Shinano Seisakusho, Japan) and bronchospasm transducer (7020, Ugo Basile). The overflowing air at 6-9 ml(air)/time, 60 times/minute and loading pressure of 10 cm H2O was recorded on a recorder (056-1001, Hitachi Seisakusho, Japan) through the bronchospasm transducer. Histamine (3 µg/kg) was administered several times at 30 minutes intervals, and when the increase in the airway resistance by histamine was established, the test compounds were intravenously administered one minute before the administration of histamine (3 µg/kg) to induce airway constriction. The difference of airway resistance before and after the administration of histamine was taken as 100% and activity of test compounds was shown in terms of percent inhibition of the increase due to histamine.

A further assay has as its system contraction by histamine. Nature of the assay: Inhibition of histamine-induced contraction of isolated guinea pig trachea (Test Example 1). Type of assay: cell-based. As to conditions: guinea pig trachea contracted with 5.4x10^-4M histamine, cumulative addition every 6 minutes; for IC20: concentration for 20% inhibition; for IC50: concentration for 50% inhibition. The protocol: as §1, with “5.4x10^-4M histamine” for “1x10^-8M leukotriene D4”, “Denshi” for “Densi”
Rate of inhibition by the test compounds of the contraction by histamine was expressed in percent, and IC20 and IC50 values were calculated as the concentration of the test compounds for 20% and 50% […], respectively.

As for `CCCC(F)(F)C(=O)CCCC1C(=O)CC(O)C1C/C=C\CCCC(=O)OC` (stereo not drawn) [Test Compound 8, 13,14-dihydro-15-dehydroxy-16-oxo-17,17-difluoro-PGD2 methyl ester], the “Amount(µg/site)” value in the assay on PCA reaction (amount of pigment in punched site, absorption at 620 nm, control 104.9±45.4) turned out to be 38.0±15.9 µg/site. In the assay on PCA reaction (area of pigment-leaking site, 30 minutes after antigen, control 56.9±19.4), the “Area(mm^2)” value is given as 33.7±7.5 mm^2. In addition, the “Increase in Resistance (%,mean)” value in assay [1] (complete occlusion of trachea = 100%, control 74.5) is listed as 11.5%. Also, the results for the “Inhibition (%)” value in assay [1] and in assay [3] (dose 5 µg/kg) were 84.6% and 93%, respectively. Besides, the IC20 in assay [2] is 40 nM; in the assay with contraction by histamine it was 100 nM. The IC50 in assay [2] was found to be 120 nM; in the assay with contraction by histamine, 350 nM. For the same molecule, the “Weight of Conjunctive (Mean±S.D.)” value in the assay with conjunctive was 32.7 ± 1.8 mg.
On to `CCCC(F)(F)C(=O)CCC[C@H]1C=CC(=O)[C@@H]1C/C=C\CCCC(=O)OC` [compound 9], for which, in the assay with conjunctive, the “Weight of Conjunctive (Mean±S.D.)” value amounted to 38.9 ± 1.8 mg and the “Dye (µg/part)” value worked out at 7.49±0.67 µg/part.
As for `CCCC(F)(F)C(=O)CCC[C@H]1[C@H](C)CC(=O)[C@@H]1C/C=C\CCCC(=O)OC` [compound 4], the IC20 in assay [2] (Cavia porcellus) came out at 7000 nM; with contraction by histamine (Cavia porcellus, 0.1 h), 10000 nM. Also, the IC50 in assay [2] (Cavia porcellus) was found to be 25000 nM.
In assay [2] (Cavia porcellus), `CCCC(F)(F)C(=O)CCC[C@H]1[C@H](O)CC(=O)[C@@H]1C/C=C\CCCC(=O)O` [compound 2] returned a 20% effect concentration (IC20) of 300 nM and an IC50 of 1000 nM. The “Inhibition (%)” value in assay [3] (dose 10 µg/kg) was 78%. In the assay with contraction by histamine (Cavia porcellus, 0.1 h), this molecule registered an IC20 of 300 nM and a half-inhibitory concentration (IC50) of 2000 nM.
On to `CCCC(F)(F)C(=O)CCC[C@H]1[C@H](O)CC(=O)[C@@H]1C/C=C\CCCC(=O)OC` [compound 1], for which, in assay [2] (Cavia porcellus), it took 160 nM to reach the 20% level (IC20) and the IC50 was 500 nM. Further, in the assay with conjunctive, the “Weight of Conjunctive (Mean±S.D.)” value amounted to 36.3 ± 2.1 mg and the “Dye (µg/part)” value came out at 7.13±0.65 µg/part. The “Inhibition (%)” value in assay [3] (dose 10 µg/kg) is 92%. For the same molecule, in the assay with contraction by histamine (Cavia porcellus, 0.1 h), the concentration for an effect of 20% (IC20) was found to be 300 nM and the IC50 is 1200 nM.
For the molecule `CCCC(F)(F)C(=O)CCC[C@H]1C(=O)C[C@H](O)[C@@H]1C/C=C\CCCC(=O)OC` [compound 8], in the assay on conjunctive, the “Weight of Conjunctive (Mean±S.D.)” value worked out at 38.5 ± 2.0 mg and the “Dye (µg/part)” value was 7.69±0.71 µg/part.
Regarding `CCCC(F)(F)C(=O)CCC[C@H]1[C@H](O)CC(=O)[C@@H]1C/C=C\CCCC(=O)OC(C)C` [compound 3], the IC20 was 180 nM in assay [2] (Cavia porcellus) and 500 nM in the assay with contraction by histamine (Cavia porcellus, 0.1 h). In addition, the IC50 is 600 nM in assay [2] (Cavia porcellus) and 2000 nM in the assay on contraction by histamine (Cavia porcellus, 0.1 h).
On to `CCCC(F)(F)C(=O)CCC[C@@H]1[C@@H](C/C=C\CCCC(=O)OC)[C@@H](O)C[C@H]1O` [compound 7], for which the IC20 stood at 4000 nM in assay [2] (Cavia porcellus) and 17000 nM with contraction by histamine (Cavia porcellus, 0.1 h). Further, the IC50 in assay [2] (Cavia porcellus) was found to be 20000 nM.
